Measured values taken from patent publication US9724351B2, “Compounds for the treatment of paramoxyvirus viral infections” (priority 2012, dated 2017).
pEC50: −log10 of the molar value.

How the values were obtained:
[1] = tested on: Respiratory Syncytial Virus (RSV) long strain (ATCC#VR-26); experiment: RSV Antiviral Assay (CPE reduction assay); assay type: cell-based; details: human respiratory syncytial virus, 120 h; HEp-2 cells infected with RSV long strain, 5 days, CCK-8 readout; bins (Table 2: less than 1 μM; Table 3: equal to or higher than 1 μM and less than 50 μM); read-out: 50% effective concentration (EC50)
Summary of the method: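 Cytopathic-effect protection measured after 5 days at 37 °C, 5% CO2 via CCK-8 dehydrogenase readout at 450 nm (630 nm reference), EC50 regressed from mean O.D. Host HEp-2 cells received RSV long strain at 100 TCID50/well; compound 9-point ⅓ series starting 100 μM or 1 μM, 1% DMSO, duplicate wells.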

[2] = Cytotoxicity Determination; assay type: cell-based; details: human, HEp-2 cells, without addition of virus, CCK-8 readout, bins (Table 4: greater than 100 μM; Table 5: equal to or less than 100 μM and greater than 10 μM), read-out: 50% cytotoxicity concentration (CC50)
Summary of the method: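 CC50 was derived from CCK-8 optical density after a 3-4 h reagent incubation. Before that, cells without virus had been treated for 5 days at 37 °C, 5% CO2 with compound at seven ½-step final concentrations from 100 μM, in duplicate wells.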

SMILES	pEC50 [1]	CC50 at 5 days [2]
COc1ccc(C(=O)CNC(=O)c2ccc(OCCO)c(C)c2)nc1-c1ccc(F)c(Cl)c1 [Compound 1309]	> 6.00	> 100 µM
COc1ccc(C(=O)NCC(=O)N/N=C2\CCCc3[nH]c4ccccc4c32)cc1OC [Compound 414]	4.30 to 6.00	10 to 100 µM
COc1ccc(C(=O)NCC(=O)N/N=C(\C)c2c(OC)sc3ccccc23)cc1OC [Compound 400-19]	4.30 to 6.00	10 to 100 µM
C/C(=N\NC(=O)CNC(=O)c1ccc(N2CCCC2)cc1)c1csc2ccccc12 [Compound 468]	4.30 to 6.00	> 100 µM
